According to patent US7524880B2, “Crystalline form of a substituted pyrrolidine compound” (Theravance, Inc., priority 2004, dated 2009):

Columns and labels:
[1] = tested on: ACh-induced bronchoconstriction; experiment: Duration of bronchoprotection in guinea pig model of acetylcholine-induced bronchoconstriction; assay type: in vivo; conditions: inhalation, 1.5 hours post-dose
Description: Groups of six male guinea pigs (Duncan-Hartley (HsdPoc:DH) Harlan, Madison, Wis.) weighing between 250 and 350 g were individually identified by cage cards. Throughout the study animals were allowed access to food and water ad libitum.
The test compound was administered via inhalation over 10 minutes in a whole-body exposure dosing chamber (R&S Molds, San Carlos, Calif.). The dosing chambers were arranged so that an aerosol was simultaneously delivered to 6 individual chambers from a central manifold. Guinea pigs were exposed to an aerosol of a test compound or vehicle (WFI). […] This was measured gravimetrically by comparing pre-and post-nebulization weights of the filled nebulizer.
The bronchoprotective effects of a test compound administered via inhalation were evaluated using whole body plethysmography at 1.5, 24, 48 and 72 hours post-dose.
Forty-five minutes prior to the start of the pulmonary evaluation, each guinea pig was anesthetized with an intramuscular injection of ketamine (43.75 mg/kg), xylazine (3.50 mg/kg) and acepromazine (1.05 mg/kg). […] The depth of anesthesia was monitored and adjusted if the animal responded to pinching of its paw or if the respiration rate was greater than 100 breaths/minute. […]
Starting this program initiated the experimental protocol and data collection. […] By integrating this signal over time, a measurement of flow was calculated for each breath. […]

[2] = tested on: pilocarpine-evoked salivation; experiment: Inhalation guinea pig salivation assay; assay type: in vivo
Description: Guinea pigs (Charles River, Wilmington, Mass.) weighing 200-350 g were acclimated to the in-house guinea pig colony for at least 3 days following arrival. Test compound or vehicle were dosed via inhalation (IH) over a 10 minute time period in a pie shaped dosing chamber (R+S Molds, San Carlos, Calif.). Test solutions were dissolved in sterile water and delivered using a nebulizer filled with 5.0 mL of dosing solution. Guinea pigs were restrained in the inhalation chamber for 30 minutes. During this time, guinea pigs were restricted to an area of approximately 110 cm^2. This space was adequate for the animals to turn freely, reposition themselves, and allow for grooming. […] Upon completion of nebulization, guinea pigs were evaluated at 1.5, 6, 12, 24, 48, or 72 hrs after treatment.
Guinea pigs were anesthetized one hour before testing with an intramuscular (IM) injection of a mixture of ketamine 43.75 mg/kg, xylazine 3.5 mg/kg, and acepromazine 1.05 mg/kg at an 0.88 mL/kg volume. […] Saliva was collected for 10 minutes, at which point the gauze pad was weighed and the difference in weight recorded to determine the amount of accumulated saliva (in mg). The mean amount of saliva collected for animals receiving the vehicle and each dose of test compound was calculated. […] Results were calculated using result means (n=3 or greater). […]

SMILES: CNCCCCCCCCN1CC[C@@H](C(C(N)=O)(c2ccccc2)c2ccccc2)C1 [compound of formula I, 2-[(S)-1-(8-methylaminooctyl)pyrrolidin-3-yl]-2,2-diphenylacetamide]
- PD2(50) for ACh-induced bronchoconstriction [1]: less than 200 μg/mL
- apparent lung selectivity index (ratio of anti-sialagogue ID50 to bronchoprotective ID50) [2]: greater than 5
